In paper PMC10215198, “Antibacterial Conjugates of Kanamycin A with Vancomycin and Eremomycin: Biological Activity and a New MS-Fragmentation Pattern of Cbz-Protected Amines” (Antibiotics, 2023):
Values after ≈ are worked out from the molar mass of the structure shown.

Tests used:
S. aureus 3798 (VISA) = test: MIC, broth micro-dilution, Gram-positive clinical isolate (VISA); format: cell-based, Staphylococcus aureus; settings: Mueller Hinton broth, inoculum 5 × 10^5 CFU/mL, 24 h at 36 °C
Procedure: (§1) We performed a study of antibacterial activity of the synthesized compounds 17 on a panel of clinical isolates of the Gram-positive microorganisms S. haemolyticus 602, S. aureus 3798 (VISA), and Enterococcus faecalis 560 (Van A) and against the Gram-negative strain Escherichia coli 25922 ATCC by the MTT method (Table 1).
(§2) The in vitro study was performed according to the recommendations of the European Committee on Antimicrobial Susceptibility testing. The MIC values for Gram-positive and Gram-negative bacterial strains were determined by the broth micro-dilution method using Mueller Hinton broth (Acumedia Manufacturers Inc., Lansing, MI, USA) and the National Committee for Clinical Laboratory Standards procedures as described earlier.

[1] = tested on: Escherichia coli 25922 ATCC; test: MIC, broth micro-dilution, Gram-negative strain; format: cell-based; settings: Mueller Hinton broth, inoculum 5 × 10^5 CFU/mL, 24 h at 36 °C
Procedure: as §1, §2

[2] = tested on: Enterococcus faecalis 560 (Van A); test: MIC, broth micro-dilution, Gram-positive clinical isolate (Van A); format: cell-based; settings: Mueller Hinton broth, inoculum 5 × 10^5 CFU/mL, 24 h at 36 °C
Procedure: as §1, §2

S. haemolyticus 602 = test: MIC, broth micro-dilution, Gram-positive clinical isolate; format: cell-based, Staphylococcus haemolyticus; settings: Mueller Hinton broth, inoculum 5 × 10^5 CFU/mL, 24 h at 36 °C
Procedure: as §1, §2

Gram-positive bacteria = settings: compared with vancomycin; cited from earlier work
Text: Another antibiotic drug of this class, eremomycin (2), was discovered at the Gause Institute of New Antibiotics. It was isolated from Amycolatopsis orientalis subsp.

Molecule	MIC (Minimum Inhibitory Antibiotic Concentration), S. aureus 3798 (VISA) (S. aureus 3798 (VISA)) [µg/mL]	MIC (Minimum Inhibitory Antibiotic Concentration), E. coli 25922 ATCC [1] [µg/mL]	MIC (Minimum Inhibitory Antibiotic Concentration), E. coli 25922 ATCC ([1]; listed as 1) [µg/mL]	MIC (Minimum Inhibitory Antibiotic Concentration), E. faecalis 560 (Van A) [2] [µg/mL]	MIC (Minimum Inhibitory Antibiotic Concentration), S. haemoliticus 602 (S. haemolyticus 602) [µg/mL]	MIC (Minimum Inhibitory Antibiotic Concentration), E. coli 25922 ATCC ([1]; listed as 2) [µg/mL]	efficacy against Gram-positive bacteria relative to vancomycin (Gram-positive bacteria)
CN[C@H](CC(C)C)C(=O)N[C@H]1C(=O)N[C@@H](CC(N)=O)C(=O)N[C@H]2C(=O)N[C@H]3C(=O)N[C@H](C(=O)N[C@H](C(=O)O)c4cc(O)cc(O)c4-c4cc3ccc4O)[C@H](O)c3ccc(c(Cl)c3)Oc3cc2cc(c3O[C@@H]2O[C@H](CO)[C@@H](O)[C@H](O)[C@H]2O[C@H]2C[C@](C)(N)[C@H](O)[C@H](C)O2)Oc2ccc(cc2Cl)[C@H]1O [Vancomycin (1), Vancomycin]	8 (≈ 5.52 µM)	>64	> 64	>64	1 (≈ 0.69 µM)	–	–
CN[C@H](CC(C)C)C(=O)N[C@H]1C(=O)N[C@@H](CC(N)=O)C(=O)N[C@H]2C(=O)N[C@H]3C(=O)N[C@H](C(=O)N[C@@H](C(=O)O)c4cc(O)cc(O)c4-c4cc3ccc4O)[C@H](O[C@@H]3C[C@@](C)(N)[C@H](O)[C@@H](C)O3)c3ccc(cc3)Oc3cc2cc(c3O[C@H]2O[C@@H](CO)[C@H](O)[C@@H](O)[C@@H]2O[C@H]2C[C@](C)(N)[C@@H](O)[C@H](C)O2)Oc2ccc(cc2Cl)[C@H]1O (stereo in doubt) [Eremomycin (2), Eremomycin]	16 (≈ 10.3 µM)	64 (≈ 41.1 µM)	–	>64	0.25 (≈ 0.16 µM)	> 64	three to five times higher
Kanamycinyl A 1-Amide of Eremomycin [Compound 7]	2	>64	–	32	0.25	–	–
NC1CC(NC(=O)OCc2ccccc2)C(OC2OC(CNC(=O)OCc3ccccc3)C(O)C(O)C2O)C(O)C1OC1OC(CO)C(O)C(N)C1O (centres unmarked) [Compound 4, 3,6′-Di-Benzyloxycarbonyl-Kanamycin A]	–	>64	–	–	–	–	–
3,6′-Di-Cbz-Kanamycinyl A 1-Amide of Vancomycin [Compound 5]	2	>64	–	32	–	–	–
Kanamycin A [Kanamycin A (3)]	–	4	–	–	–	–	–
3,6′-Di-Cbz-Kanamycinyl A 1-Amide of Eremomycin [Compound 6]	4	>64	–	8	–	–	–
